{"source": "patent US7632863B2", "about": "“3,4,5,4′-tetramethoxyl-α,β-diphenylethane-3′-O-sodium sulphate and its use” (The Jian Cell Biomedical Research Co., Ltd., priority 2007, dated 2009)", "tested_on": "KunMing (KM) mice", "experiment": "LD50 determination, tail vein injection", "assay_type": "in vivo", "conditions": "for Death rate in total % Total / Death rate in total % ♀ / Death rate in total % ♂ / Deaths days 1 ♀ / Deaths days 1 ♂ / Deaths days 2 ♀ / Deaths days 2 ♂ / Deaths days 3 ♀ / Deaths days 3 ♂ / Deaths days 4 ♀ / Deaths days 4 ♂ / Deaths hours 0-4 ♀ / Deaths hours 0-4 ♂: tail vein injection", "procedure": "1. Experimental animal: KunMing (KM) mice, provided by Shanghai Slac Laboratory Animal Co., Ltd., half and half of female and male, 6 groups, ten in each group, marked by bitter acid.\n2. […] Preparing medical solution of equal ratio: dissolving with 0.9% NaCl to prepare the medical solution with the concentration of 336 mg/7 ml, 316.96 mg/7 ml, 299.32 mg/7 ml, 282.52 mg/7 ml, 266.84 mg/7 ml, 252 mg/7 ml.\n3. Dosage for administration: with 0.5 ml/20 g bottom up.\n4. Means of administration: tail vein injection\n5. Experimental method: observing at 0.25 h, 0.5 h, 1 h, 2 h, 4 h, 24 h respectively after administration; then observing once every day 14 days; putting the mice still alive to death on the 15th day and recording the death rate.", "data": [{"smiles": "COc1ccc(CCc2cc(OC)c(OC)c(OC)c2)cc1OS(=O)(=O)[O-].[Na+]", "note": "[AS, 3,4,5,4′-tetramethoxyl-α,β-diphenylethane-3′-O-sodium sulphate]", "values": [{"measurement": "Death rate in total % Total", "setting": "900 mg/kg", "value": 0, "unit": "%"}, {"measurement": "Death rate in total % ♀", "setting": "900 mg/kg", "value": 0, "unit": "%"}, {"measurement": "Death rate in total % ♂", "setting": "900 mg/kg", "value": 0, "unit": "%"}, {"measurement": "Deaths days 1 ♀", "setting": "900 mg/kg", "value": 0}, {"measurement": "Deaths days 1 ♂", "setting": "900 mg/kg", "value": 0}, {"measurement": "Deaths days 2 ♀", "setting": "900 mg/kg", "value": 0}, {"measurement": "Deaths days 2 ♂", "setting": "900 mg/kg", "value": 0}, {"measurement": "Deaths days 3 ♀", "setting": "900 mg/kg", "value": 0}, {"measurement": "Deaths days 3 ♂", "setting": "900 mg/kg", "value": 0}, {"measurement": "Deaths days 4 ♀", "setting": "900 mg/kg", "value": 0}, {"measurement": "Deaths days 4 ♂", "setting": "900 mg/kg", "value": 0}, {"measurement": "Deaths hours 0-4 ♀", "setting": "900 mg/kg", "value": 0}, {"measurement": "Deaths hours 0-4 ♂", "setting": "900 mg/kg", "value": 0}, {"measurement": "Death rate in total % Total", "setting": "953 mg/kg", "value": 0, "unit": "%"}, {"measurement": "Death rate in total % ♀", "setting": "953 mg/kg", "value": 0, "unit": "%"}, {"measurement": "Death rate in total % ♂", "setting": "953 mg/kg", "value": 0, "unit": "%"}, {"measurement": "Deaths days 1 ♀", "setting": "953 mg/kg", "value": 0}, {"measurement": "Deaths days 1 ♂", "setting": "953 mg/kg", "value": 0}, {"measurement": "Deaths days 2 ♀", "setting": "953 mg/kg", "value": 0}, {"measurement": "Deaths days 2 ♂", "setting": "953 mg/kg", "value": 0}, {"measurement": "Deaths days 3 ♀", "setting": "953 mg/kg", "value": 0}, {"measurement": "Deaths days 3 ♂", "setting": "953 mg/kg", "value": 0}, {"measurement": "Deaths days 4 ♀", "setting": "953 mg/kg", "value": 0}, {"measurement": "Deaths days 4 ♂", "setting": "953 mg/kg", "value": 0}, {"measurement": "Deaths hours 0-4 ♀", "setting": "953 mg/kg", "value": 0}, {"measurement": "Deaths hours 0-4 ♂", "setting": "953 mg/kg", "value": 0}, {"measurement": "Death rate in total % Total", "setting": "1009 mg/kg", "value": 40, "unit": "%"}, {"measurement": "Death rate in total % ♀", "setting": "1009 mg/kg", "value": 20, "unit": "%"}, {"measurement": "Death rate in total % ♂", "setting": "1009 mg/kg", "value": 60, "unit": "%"}, {"measurement": "Deaths days 1 ♀", "setting": "1009 mg/kg", "value": 0}, {"measurement": "Deaths days 1 ♂", "setting": "1009 mg/kg", "value": 0}, {"measurement": "Deaths days 2 ♀", "setting": "1009 mg/kg", "value": 0}, {"measurement": "Deaths days 2 ♂", "setting": "1009 mg/kg", "value": 0}, {"measurement": "Deaths days 3 ♀", "setting": "1009 mg/kg", "value": 0}, {"measurement": "Deaths days 3 ♂", "setting": "1009 mg/kg", "value": 0}, {"measurement": "Deaths days 4 ♀", "setting": "1009 mg/kg", "value": 0}, {"measurement": "Deaths days 4 ♂", "setting": "1009 mg/kg", "value": 0}, {"measurement": "Deaths hours 0-4 ♀", "setting": "1009 mg/kg", "value": 1}, {"measurement": "Deaths hours 0-4 ♂", "setting": "1009 mg/kg", "value": 3}, {"measurement": "Death rate in total % Total", "setting": "1069 mg/kg", "value": 80, "unit": "%"}, {"measurement": "Death rate in total % ♀", "setting": "1069 mg/kg", "value": 80, "unit": "%"}, {"measurement": "Death rate in total % ♂", "setting": "1069 mg/kg", "value": 80, "unit": "%"}, {"measurement": "Deaths days 1 ♀", "setting": "1069 mg/kg", "value": 0}, {"measurement": "Deaths days 1 ♂", "setting": "1069 mg/kg", "value": 0}, {"measurement": "Deaths days 2 ♀", "setting": "1069 mg/kg", "value": 0}, {"measurement": "Deaths days 2 ♂", "setting": "1069 mg/kg", "value": 0}, {"measurement": "Deaths days 3 ♀", "setting": "1069 mg/kg", "value": 0}, {"measurement": "Deaths days 3 ♂", "setting": "1069 mg/kg", "value": 0}, {"measurement": "Deaths days 4 ♀", "setting": "1069 mg/kg", "value": 0}, {"measurement": "Deaths days 4 ♂", "setting": "1069 mg/kg", "value": 0}, {"measurement": "Deaths hours 0-4 ♀", "setting": "1069 mg/kg", "value": 4}, {"measurement": "Deaths hours 0-4 ♂", "setting": "1069 mg/kg", "value": 4}, {"measurement": "Death rate in total % Total", "setting": "1132 mg/kg", "value": 60, "unit": "%"}, {"measurement": "Death rate in total % ♀", "setting": "1132 mg/kg", "value": 60, "unit": "%"}, {"measurement": "Death rate in total % ♂", "setting": "1132 mg/kg", "value": 60, "unit": "%"}, {"measurement": "Deaths days 1 ♀", "setting": "1132 mg/kg", "value": 0}, {"measurement": "Deaths days 1 ♂", "setting": "1132 mg/kg", "value": 0}, {"measurement": "Deaths days 2 ♀", "setting": "1132 mg/kg", "value": 0}, {"measurement": "Deaths days 2 ♂", "setting": "1132 mg/kg", "value": 0}, {"measurement": "Deaths days 3 ♀", "setting": "1132 mg/kg", "value": 0}, {"measurement": "Deaths days 3 ♂", "setting": "1132 mg/kg", "value": 0}, {"measurement": "Deaths days 4 ♀", "setting": "1132 mg/kg", "value": 0}, {"measurement": "Deaths days 4 ♂", "setting": "1132 mg/kg", "value": 0}, {"measurement": "Deaths hours 0-4 ♀", "setting": "1132 mg/kg", "value": 3}, {"measurement": "Deaths hours 0-4 ♂", "setting": "1132 mg/kg", "value": 3}, {"measurement": "Death rate in total % Total", "setting": "1200 mg/kg", "value": 70, "unit": "%"}, {"measurement": "Death rate in total % ♀", "setting": "1200 mg/kg", "value": 40, "unit": "%"}, {"measurement": "Death rate in total % ♂", "setting": "1200 mg/kg", "value": 100, "unit": "%"}, {"measurement": "Deaths days 1 ♀", "setting": "1200 mg/kg", "value": 0}, {"measurement": "Deaths days 1 ♂", "setting": "1200 mg/kg", "value": 0}, {"measurement": "Deaths days 2 ♀", "setting": "1200 mg/kg", "value": 0}, {"measurement": "Deaths days 2 ♂", "setting": "1200 mg/kg", "value": 0}, {"measurement": "Deaths days 3 ♀", "setting": "1200 mg/kg", "value": 0}, {"measurement": "Deaths days 3 ♂", "setting": "1200 mg/kg", "value": 0}, {"measurement": "Deaths days 4 ♀", "setting": "1200 mg/kg", "value": 0}, {"measurement": "Deaths days 4 ♂", "setting": "1200 mg/kg", "value": 0}, {"measurement": "Deaths hours 0-4 ♀", "setting": "1200 mg/kg", "value": 2}, {"measurement": "Deaths hours 0-4 ♂", "setting": "1200 mg/kg", "value": 5}, {"measurement": "toxicity (in words)", "setting": "conclusion from LD50", "value": "very low"}]}]}
